Test systems include HCC-2998 colon; M14 melanoma; CCRF-CEM leukemia; COLO 205 colon; SK-MEL-5 melanoma; HCT-15 colon; HT29 colon; SNB-75 CNS; MCF7 breast; SK-MEL-2 melanoma; LOX IMVI melanoma.
What all share (assay): DTP human tumour cell line panel, 48 h

The TGI is the concentration at which net growth stops. High values mean lower sensitivity of the cells, low ones greater sensitivity of the cells.

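Cells were grown in 96-well plates and exposed to each compound for 48 hours at five concentrations; endpoints were interpolated linearly between bracketing concentrations, or set to the highest concentration if not reached. The concentration for full growth arrest is given as TGI.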

For the compound `CCOC(=O)c1nc2ccccc2nc1Nc1ccc(OC)c(OC)c1`, the TGI in the assay on HCC-2998 colon, with M14 melanoma, in the assay on CCRF-CEM leukemia, in the assay on COLO 205 colon, in the assay with SK-MEL-5 melanoma and with HCT-15 colon was greater than 100 µM each time. Further, the TGI was greater than 100 µM in the assay with HT29 colon, 77 µM with SNB-75 CNS, greater than 100 µM with MCF7 breast and greater than 100 µM in the assay on SK-MEL-2 melanoma.

Turning to `Brc1c(C#CCC(c2ccccc2)(c2ccccc2)c2ccccc2)ccc(C#CCC(c2ccccc2)(c2ccccc2)c2ccccc2)c1Br`, the TGI in the assay on HCC-2998 colon, in the assay on M14 melanoma, with CCRF-CEM leukemia, with COLO 205 colon, in the assay with SK-MEL-5 melanoma and in the assay on HCT-15 colon was greater than 100 µM throughout. The TGI in the assay on HT29 colon, in the assay on SNB-75 CNS, with MCF7 breast and with SK-MEL-2 melanoma was greater than 100 µM each time.

Regarding `Cc1c2c(n(CCc3ccccc3)c1C)N(C)N=C(C#N)S2(=O)=O`, the TGI in the assay with HCC-2998 colon, with M14 melanoma, with SK-MEL-5 melanoma, in the assay on HCT-15 colon, in the assay with HT29 colon and in the assay with SNB-75 CNS was greater than 100 µM throughout. Further, the TGI with MCF7 breast and in the assay with SK-MEL-2 melanoma was greater than 100 µM throughout.

On to `O=C1N2CCc3c([nH]c4ccccc34)C23CC2CCCCC12S3` (stereo unspecified), for which the TGI in the assay on M14 melanoma, in the assay on COLO 205 colon, with SK-MEL-5 melanoma, with HCT-15 colon, with HT29 colon and in the assay on MCF7 breast was greater than 100 µM in each case. Further, the TGI in the assay on LOX IMVI melanoma is greater than 100 µM.

With `CCOc1ccc(NC(=O)/C(=N\NC(C)(C)C)C2C(=O)Nc3ccccc3S2=O)cc1` (stereo unspecified), the TGI with HCC-2998 colon, in the assay with M14 melanoma, in the assay on CCRF-CEM leukemia, in the assay on COLO 205 colon, with SK-MEL-5 melanoma and in the assay with HCT-15 colon was greater than 100 µM in each case. For the same compound, the TGI in the assay with HT29 colon, in the assay with SNB-75 CNS, in the assay on MCF7 breast and with SK-MEL-2 melanoma was greater than 100 µM in each case.

Take `C=C1C(=O)OC2/C=C(/C)C3CC(O)C(C)(CC(OC(=O)/C(C)=C/C)C12)O3` (stereo unspecified): the TGI came to 28.4 µM in the assay on HCC-2998 colon; 9.08 µM in the assay with M14 melanoma; 8.1 µM with CCRF-CEM leukemia; 3.08 µM in the assay on COLO 205 colon; 16.2 µM in the assay on SK-MEL-5 melanoma; 3.61 µM in the assay with HCT-15 colon. The TGI in the assay on HT29 colon is 13.1 µM; in the assay with SNB-75 CNS it was 28.2 µM; with LOX IMVI melanoma, 4.4 µM; with SK-MEL-2 melanoma it was 7.34 µM.

As to `O=C(O)CS`, the TGI with HCC-2998 colon, in the assay on CCRF-CEM leukemia, in the assay on COLO 205 colon, in the assay with SK-MEL-5 melanoma, in the assay with HCT-15 colon and in the assay on HT29 colon was greater than 100 µM throughout. Further, the TGI in the assay on SNB-75 CNS, in the assay with LOX IMVI melanoma and in the assay with SK-MEL-2 melanoma was greater than 100 µM throughout.

For `CCCCc1ccc(Nc2nc(=S)c3[nH]cnc3[nH]2)cc1`, the TGI in the assay with HCC-2998 colon is 66.4 µM; with M14 melanoma, greater than 100 µM; with CCRF-CEM leukemia, 47.9 µM; with COLO 205 colon, 31.2 µM; in the assay on SK-MEL-5 melanoma, 25.5 µM; with HCT-15 colon it was greater than 100 µM. Besides, the TGI in the assay on HT29 colon was found to be 22 µM; in the assay on LOX IMVI melanoma it was 31.7 µM; with SK-MEL-2 melanoma, 52.1 µM.

As for `CC(C)CCC[C@@H](C)C1CCC2[C@@H]3CC=C4C[C@@H](C(=O)NCC[N+](C)(C)CCCS(=O)(=O)[O-])CC[C@]4(C)C3CC[C@@]21C` (stereo partly specified), the TGI is 35.2 µM in the assay on HCC-2998 colon; 31.6 µM in the assay with M14 melanoma; 31.5 µM in the assay with CCRF-CEM leukemia; 31.9 µM in the assay on COLO 205 colon; 41.4 µM with SK-MEL-5 melanoma; 30.9 µM in the assay with HCT-15 colon. Besides, the TGI in the assay on HT29 colon came to 33 µM; in the assay with SNB-75 CNS it was 35.1 µM; with LOX IMVI melanoma, 25.2 µM; with SK-MEL-2 melanoma, 32.4 µM.

With `c1ccc(C2=NOC3(c4ccccc4)SC4CCCCC4CN23)cc1` (stereo unspecified), the total growth inhibition concentration (TGI) was greater than 100 µM in the assay with HCC-2998 colon; 49.3 µM in the assay with M14 melanoma; 31.6 µM in the assay on CCRF-CEM leukemia; 69.4 µM in the assay with COLO 205 colon; 28.7 µM in the assay on SK-MEL-5 melanoma; greater than 100 µM in the assay with HCT-15 colon. Further, the TGI in the assay on HT29 colon is greater than 100 µM; in the assay on SNB-75 CNS, 84.8 µM; with LOX IMVI melanoma, 34 µM; in the assay with SK-MEL-2 melanoma, greater than 100 µM.

Consider `Cc1ccc(N=N/C(=N/NC(=O)c2cc(Cl)ccc2C(=O)c2ccccc2)c2ccc(N(CCC#N)CCC#N)cc2C)cc1`, for which the TGI in the assay with HCC-2998 colon turned out to be 43.9 µM; in the assay with M14 melanoma, 41 µM; in the assay with CCRF-CEM leukemia it was 13.1 µM; in the assay on COLO 205 colon it was 27.7 µM; in the assay on SK-MEL-5 melanoma it was 33.6 µM; in the assay on HCT-15 colon it was 57.8 µM. In addition, the TGI with HT29 colon was 39.9 µM; with SNB-75 CNS it was greater than 100 µM; in the assay with MCF7 breast it was 15.2 µM; in the assay on SK-MEL-2 melanoma, 28.2 µM.

As for `CC(=O)Oc1cc2c(c3ncccc13)OC(C)(C)C2`, the TGI was greater than 100 µM in the assay with HCC-2998 colon; 27.5 µM in the assay with M14 melanoma; 28.7 µM with CCRF-CEM leukemia; 35 µM with COLO 205 colon; 25.4 µM with SK-MEL-5 melanoma; 46.5 µM in the assay with HCT-15 colon. Besides, the TGI is 36.9 µM with HT29 colon, 17.2 µM with SNB-75 CNS, 61.8 µM in the assay with MCF7 breast and 44.6 µM in the assay on SK-MEL-2 melanoma.

Consider `CC(C)(C)NC(=O)NC12CC3CC(CC(F)(C3)C1)C2`, for which the TGI in the assay on HCC-2998 colon, with M14 melanoma, in the assay with CCRF-CEM leukemia, in the assay on COLO 205 colon, with HT29 colon and with SNB-75 CNS was greater than 100 µM in each case. Further, the TGI with LOX IMVI melanoma and in the assay with SK-MEL-2 melanoma was greater than 100 µM in each case.
